According to patent publication US7001736B1, “Pharmacogenetic methods for use in the treatment of nervous system diseases” (priority 1995, dated 2006):
Like-named read-outs stand apart in the source and are kept apart here.

Key:
AD patients = conditions: maximum dose, 40 to 160 mg/d over 30 weeks
Excerpt: The patients selection done on the basis of presence and absence of drug response to the treatment. The Alzheimer's Disease Assessment Scale (ADAS) used to monitor treatment effects. […] The ADAS-cog is an objective test that evaluates memory, attention, reasoning, orientation and praxis: a decrease score over time (or a positive difference) indicates improvement (Rosen W. G. et al, 1984, Am. J. Psychiatr., 141:1356 1364). The AD total includes the cognitive and non-cognitive portion of the ADAS.
Each bar represents an individual subjects. Positive delta values (difference in AD score at the end minus AD score prior to drug treatment) indicate improvement in cognitive performance (ADcog) and in global performances (ADAS-total). Negative values represent patients who deteriorated over time and drug treatment. All the subjects are AD subjects, all were treated with the same drug, at the same level, for the same duration.

patients with AD = tested on: patients with AD
Excerpt: In this example we characterize patients with AD recruited for a large multi center study of tacrine and to investigate the impact of apoE allele load on short-term outcomes in placebo-treated patients, short-term Tacrine™ treatment effects, and long-term treatment outcome. The patients were classified by sex and dosage.
The 30-week study was randomized, double-blind, placebo-controlled, parallel-group clinical trial conducted at 33 centers in the USA (see Knapp, M. J. et al. JAMA 271: 985–991 (1995) for complete methodology). Patients randomized to tacrine treatment received an initial dose of 40 mg/day (10 mg QID) and were force-titrated at 6-week intervals in increments of 40 mg to maximum dose levels of 80, 120, and 160 mg/day for Groups II, III, and IV, respectively. Group I received placebo for the entire 30 weeks. The protocol was approved by Institutional Review Boards for each study center and followed guidelines of the Declaration of Helsinki and Good Clinical Practices.
Patients eligible for the 30-week study were men and women, at least 50 years of age, meeting National Institute of Neurological and Communicative Disorders and Stroke (NINCDS) criteria for a diagnosis of probable AD. […] Disease severity at the time of study entry was defined mild to moderate based on Mini-Mental State Examination. (MMSE) scores between 10 and 26 inclusive. Written informed consent was obtained from care givers and patients or their legal representatives. Medications with known central nervous system effects were prohibited during double-blind treatment. Once patients completed or terminated from the double-blind phase of the study there were no restrictions on concurrent medications. Patients who stopped tacrine treatment could take other investigational drugs.
The ADAS-Cog is an objective test that evaluates memory, language, and praxis and is a sensitive measure of patient performance (maximum severity score of […]). A decrease in score indicates improvement.
Four comparisons of tacrine 160 mg/day versus placebo were conducted: (1) without adjusting for ApoE4; (2) adjusting for the presence or absence of ApoE4; (3) for patients with Apo E4; and (4) without Apo E4. The estimated treatment differences, 95% confidence intervals for the treatment differences, and parametric p-values were computed from an analysis of variance (ANOVA) that included effects for randomized treatment group (placebo, 80 mg/day, 120 mg/day, and 160 mg/day) and study site. An analysis of covariance (ANCOVA) for ADAS-Cog also included baseline score a covariant. Least-square means were used to estimate the effect of the E4 allele on Week 30 efficacy scores.
The change in ADAS-Cog scores at Week 30 were estimated for: (1) placebo patients with an E4 allele, (2) placebo patients without an E4 allele, (3) Tacrine™ 160 mg/day patients with an E4 allele, and (4) Tacrine™ 160 mg/day patients without an E4 allele using ANCOVA that adjusted for site and baseline score. Similarly, Week 30 CIBIC and FCCA scores were estimated using ANOVA adjusted for study site effects.

Q: What does the source list for Nc1c2c(nc3ccccc13)CCCC2 [Tacrine, tacrine]?
A: subjects showing improvement with tacrine administration (AD total) (AD patients; apoE4 negative AD subjects): more than 85%; subjects worse following drug treatment (AD total) (AD patients; apoE4 positive AD subjects): 60%; response to tacrine (patients with AD; men having two E4 alleles): do not respond; % of subjects with an improvement of the ADAS-COG score by at least 5 points (patients with AD; men, Tacrine high, E4/X): 69%; % of subjects with an improvement of the ADAS-COG score by at least 5 points (patients with AD; men, Tacrine high, EX/X): 29%; % of subjects with an improvement of the ADAS-COG score by at least 5 points (patients with AD; men, Tacrine low, E4/4): 0%; % of subjects with an improvement of the ADAS-COG score by at least 5 points (patients with AD; men, Tacrine low, E4/X): 14%; % of subjects with an improvement of the ADAS-COG score by at least 5 points (patients with AD; men, Tacrine low, EX/X): 33%; % of subjects with an improvement of the ADAS-COG score by at least 5 points (patients with AD; men, Tacrine mid, E4/4): 0%; % of subjects with an improvement of the ADAS-COG score by at least 5 points (patients with AD; men, Tacrine mid, E4/X): 34%; % of subjects with an improvement of the ADAS-COG score by at least 5 points (patients with AD; men, Tacrine mid, EX/X): 0%; response to tacrine (patients with AD; women having two E4 alleles): do not respond; % of subjects with an improvement of the ADAS-COG score by at least 5 points (patients with AD; women, Tacrine high, E4/X): 20%; % of subjects with an improvement of the ADAS-COG score by at least 5 points (patients with AD; women, Tacrine high, EX/X): 43%; % of subjects with an improvement of the ADAS-COG score by at least 5 points (patients with AD; women, Tacrine low, E4/4): 0%; % of subjects with an improvement of the ADAS-COG score by at least 5 points (patients with AD; women, Tacrine low, E4/X): 20%; % of subjects with an improvement of the ADAS-COG score by at least 5 points (patients with AD; women, Tacrine mid, E4/4): 0%; % of subjects with an improvement of the ADAS-COG score by at least 5 points (patients with AD; women, Tacrine mid, E4/X): 24%; % of subjects with an improvement of the ADAS-COG score by at least 5 points (patients with AD; women, Tacrine mid, EX/X): 67%
